What all share (format): biochemical
In one assay the target is T1, p70S6K (Homo sapiens, UniProt P23443, T412E).
T1 construct: human p70S6 kinase domain residues 1-421, containing a T412E mutation; made in house
The assay is described as follows: p70S6 Kinase Assay (Luciferase-Coupled Chemiluminescent Kinase assay, LCCA). The settings on record: human p70S6 kinase domain residues 1-421, T412E; 5 μM ATP; read-out: p70S6K IC50. The procedure, abridged:
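Luciferase-coupled chemiluminescence measured percent ATP remaining after the 2 h kinase reaction at ambient temperature, with ATP near the kinase's KM. Ten inhibitor concentrations were tested. IC50 was obtained from a Hill-equation fit.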

Another assay deals with T2, Akt1 (Homo sapiens, UniProt P31749).
T2 construct: made in house
The assay is described as follows: Akt1 Kinase Assay (Luciferase-Coupled Chemiluminescent Kinase assay, LCCA). As to conditions: human Akt1 kinase domain residues R144-A480, activated with PDK1; 1 μM ATP; read-out: Akt-1 IC50. How it is done: (§1) Kinase activity and compound inhibition are investigated using one or more of the three assay formats described below. The ATP concentrations for each assay are selected to be close to the Michaelis-Menten constant (KM) for each individual kinase. Dose-response experiments are performed at 10 different inhibitor concentrations in a 384-well plate format. The data are fitted to four-parameter equation (2) below; where Y is the observed signal, X is the inhibitor concentration, Min is the background signal in the absence of enzyme (0% enzyme activity), Max is the signal in the absence of inhibitor (100% enzyme activity), IC50 is the inhibitor concentration at 50% enzyme inhibition and H represents the empirical Hill's slope to measure the cooperativity. Typically H is close to unity. Y=Min+(Max−Min)/(1+(X/IC50)^H) Equation (2) p70S6 Kinase Assay
Biochemical activity of Akt1 kinase was assessed using a Luciferase-Coupled Chemiluminescent Kinase assay (LCCA) format. Kinase activity was measured as the percent ATP remaining following the kinase reaction. Remaining ATP was detected by luciferase-luciferin-coupled chemiluminescence. Specifically, the reaction was initiated by mixing test compounds, 1 μM ATP, 5 μM crosstide peptide and 1.3 nM Akt1 (baculovirus expressed human Akt1 kinase domain residues R144-A480, activated with PDK1) in a 20 uL assay buffer (20 mM Tris-HCL pH 7.5, 10 mM MgCl2, 0.01% Triton X-100, 1 mM DTT, 3 mM MnCl2). The mixture is incubated at ambient temperature for 3 hours after which 20 μL luciferase-luciferin mix is added and the chemiluminescent signal read using a Wallac Victor2 reader. The luciferase-luciferin mix consists of 50 mM HEPES, pH 7.8, 8.5 μg/mL oxalic acid (pH 7.8), 5 (or 50) mM DTT, 0.4% Triton X-100, 0.25 mg/mL coenzyme A, 63 uM AMP, 28 μg/mL luciferin and 40,000 units/mL luciferase.

In another assay the target is T3, PDK1 (Homo sapiens, UniProt O15530).
T3 construct: human PDK1 kinase domain residues M51-T359; made in house
T3 sequence (O15530 51-359): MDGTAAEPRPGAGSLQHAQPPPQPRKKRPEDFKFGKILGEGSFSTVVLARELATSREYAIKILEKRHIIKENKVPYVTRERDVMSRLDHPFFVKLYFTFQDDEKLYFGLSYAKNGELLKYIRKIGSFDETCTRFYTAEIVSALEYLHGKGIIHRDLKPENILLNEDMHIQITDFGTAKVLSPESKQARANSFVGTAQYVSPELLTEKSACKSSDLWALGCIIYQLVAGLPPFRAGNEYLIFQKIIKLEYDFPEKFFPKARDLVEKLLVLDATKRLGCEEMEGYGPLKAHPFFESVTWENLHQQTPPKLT
The assay is described as follows: PDK1 Kinase Assay (Luciferase-Coupled Chemiluminescent Kinase assay, LCCA). The settings on record: human PDK1 kinase domain residues M51-T359; 0.5 μM ATP; read-out: PDK-1 IC50. How it is done:
as §1
Biochemical activity of PDK1 kinase was assessed using a Luciferase-Coupled Chemiluminescent Kinase assay (LCCA) format. Kinase activity was measured as the percent ATP remaining following the kinase reaction. Remaining ATP was detected by luciferase-luciferin-coupled chemiluminescence. Specifically, the reaction was initiated by mixing test compounds, 0.5 μM ATP, 0.6 μM PDKtide peptide and 6 nM PDK1 (baculovirus expressed human PDK1 kinase domain residues M51-T359) in a 20 uL assay buffer (20 mM Hepes pH 7.5, 1 mM CaCl2, 0.03% CHAPS, 2 mM DTT). The mixture is incubated at ambient temperature for 3 hours after which 20 μL luciferase-luciferin mix is added and the chemiluminescent signal read using a Wallac Victor2 reader. The luciferase-luciferin mix consists of 50 mM HEPES, pH 7.8, 8.5 μg/mL oxalic acid (pH 7.8), 5 (or 50) mM DTT, 0.4% Triton X-100, 0.25 mg/mL coenzyme A, 63 uM AMP, 28 μg/mL luciferin and 40,000 units/mL luciferase.

The text below walks through data of US7816353B2 (Exelixis, Inc., priority 2003, dated 2010).

The IC50 is the concentration at which inhibition is half-maximal.

T2 sequence (P31749 144-480): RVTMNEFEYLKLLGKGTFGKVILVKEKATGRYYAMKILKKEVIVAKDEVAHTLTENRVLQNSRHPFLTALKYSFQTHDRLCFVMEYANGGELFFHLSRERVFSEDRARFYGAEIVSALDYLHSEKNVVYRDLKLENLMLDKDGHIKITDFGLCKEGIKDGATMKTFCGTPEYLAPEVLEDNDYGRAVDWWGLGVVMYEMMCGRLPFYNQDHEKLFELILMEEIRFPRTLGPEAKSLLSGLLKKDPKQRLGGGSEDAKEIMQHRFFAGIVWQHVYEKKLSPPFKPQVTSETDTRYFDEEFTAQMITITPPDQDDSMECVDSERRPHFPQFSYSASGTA
T1 sequence (P23443 1-421 T412E): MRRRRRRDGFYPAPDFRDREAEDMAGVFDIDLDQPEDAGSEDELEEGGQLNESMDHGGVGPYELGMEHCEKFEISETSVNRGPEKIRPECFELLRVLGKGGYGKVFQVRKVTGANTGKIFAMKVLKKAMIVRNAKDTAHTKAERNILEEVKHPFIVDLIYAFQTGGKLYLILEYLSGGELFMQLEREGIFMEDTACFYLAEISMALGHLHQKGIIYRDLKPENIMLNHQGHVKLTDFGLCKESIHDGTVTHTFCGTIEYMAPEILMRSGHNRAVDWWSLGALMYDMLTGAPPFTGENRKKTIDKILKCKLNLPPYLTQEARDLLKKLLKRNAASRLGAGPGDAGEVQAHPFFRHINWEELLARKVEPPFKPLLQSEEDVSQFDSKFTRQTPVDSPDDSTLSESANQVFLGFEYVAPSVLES

Regarding `CSc1nc(N)nc(SCC(=O)Nc2ccc(Cl)c(C(F)(F)F)c2)c1C#N` [Example 34, 2-{[2-amino-5-cyano-6-(methylthio)pyrimidin-4-yl]thio}-N-[4-chloro-3-(trifluoromethyl)phenyl]acetamide], the IC50 on p70S6K was less than 50 nM; on Akt1, greater than 2000 nM; at PDK1, greater than 2000 nM.
`CSc1nc(N)nc(SCC(=O)N(C)c2cccc(C(F)(F)F)c2)c1C#N` [Example 16, 2-{(2-amino-5-cyano-6-(methylthio)pyrimidin-4-yl]thio}-N-methyl-N-[3-(trifluoromethyl)phenyl]acetamide]: the IC50 at p70S6K was 50 to 500 nM; on Akt1, greater than 2000 nM; on PDK1, greater than 2000 nM.
Regarding `CSc1nc(N)nc(N[C@@H](C)C(=O)Nc2cc(C(=O)NO)cc(C(F)(F)F)c2)c1C#N` [Example 141, 3-({N-[2-amino-5-cyano-6-(methylthio)pyrimidin-4yl]-L-alanyl}amino)-N-hydroxy-5-(trifluoromethyl)benzamide], the IC50 on p70S6K was 50 to 500 nM; at Akt1, greater than 2000 nM; on PDK1, greater than 2000 nM.
As to `CSc1nc(N)nc(N(C)[C@@H](C)C(=O)Nc2cc(C(=O)NCCN3CCOCC3)cc(C(F)(F)F)c2)c1C#N` [Example 135, 3-({N-[2-amino-5-cyano-6-(methylthio)pyrimidin-4-yl]-N-methyl-L-alanyl}amino)-N-(2-morpholin-4-ylethyl)-5-(trifluoromethyl)benzamide], the IC50 at p70S6K is less than 50 nM; at Akt1 it was greater than 2000 nM; on PDK1, greater than 2000 nM.
In the case of `Cc1nc(OCC(=O)Nc2cccc(C(F)(F)F)c2)c(C#N)c(C)c1[N+](=O)[O-]` [Example 1, 2-[(3-cyano-4,6-dimethyl-5-nitropyridin-2-yl)oxy]-N-[3-(trifluoromethyl)phenyl]acetamide], the IC50 on p70S6K was less than 50 nM; on Akt1, greater than 2000 nM; on PDK1 it was greater than 2000 nM.
As to `CSc1nc(N)nc(N[C@@H](CN(C)C)C(=O)Nc2cccc(C(F)(F)F)c2)c1C#N` [Example 142, N~2~-[2-amino-5-cyano-6-(methylthio)pyrimidin-4-yl]-3-(dimethylamino)-N-[3-(trifluoromethyl)phenyl]-L-alaninamide], the IC50 at p70S6K is 50 to 500 nM; at Akt1 it was greater than 2000 nM; at PDK1, greater than 2000 nM.
For the compound `Nc1cc(SCC(=O)Nc2ccc(F)c(C(F)(F)F)c2)nc(N)n1` [Example 32, 2-[(2,6-diaminopyrimidin-4-yl)thio]-N-[4-fluoro-3-(trifluoromethyl)phenyl]acetamide], the values for the IC50 on p70S6K, at Akt1 and on PDK1 were less than 50 nM, greater than 2000 nM and greater than 2000 nM, respectively.
For `CSc1nc(N)nc(N(C)[C@@H](C)C(=O)Nc2cc(C(=O)NCCN(C)C)cc(C(F)(F)F)c2)c1C#N` [Example 130, 3-({N-[2-amino5-cyano-6-(methylthio)pyrimidin-4-yl]-N-methyl-L-alanyl}amino)-N-[2-(dimethylamino)ethyl]-5-(trifluoromethyl)benzamide], the IC50 at p70S6K is less than 50 nM; on Akt1 it was greater than 2000 nM; at PDK1 it was greater than 2000 nM.
Regarding `CSc1cc(NCC(=O)Nc2cccc(C(F)(F)F)c2)nc(N)n1` [Example 5], the IC50 was less than 50 nM on p70S6K, greater than 2000 nM on Akt1 and greater than 2000 nM at PDK1.
Turning to `COc1ccc(OC)c(C(=O)CSc2nc(N)nc(SC)c2C#N)c1` [Example 30, 2-amino-4-({2-[2,5-bis(methyloxy)phenyl]-2-oxoethyl}thio)-6-(methylthio)pyrimidine-5-carbonitrile], the figures for the IC50 on p70S6K, at Akt1 and at PDK1 were less than 50 nM, greater than 2000 nM and greater than 2000 nM, respectively.
Take `CSc1nc(N)nc(NCC(=O)Nc2cccc(C(F)(F)F)c2)c1C#N` [Example 20, N^2-[2-amino-5-cyano-6-(methylthio)pyrimidin-4-yl]-N-[3-(trifluoromethyl)phenyl]glycinamide]: the values for the IC50 at p70S6K, at Akt1 and on PDK1 were 50 to 500 nM, greater than 2000 nM and greater than 2000 nM, respectively.
As for `CSc1nc(N)nc(SCC(=O)Nc2cc(C(F)(F)F)ccn2)c1C#N` [Example 37, 2-{[2-amino-5-cyano-6-(methylthio)pyrimidin-4-yl]thio}-N-[4-(trifluoromethyl)pyridin-2-yl]acetamide], the IC50 is less than 50 nM at p70S6K, greater than 2000 nM at Akt1 and greater than 2000 nM at PDK1.
Regarding `CCOc1nc(N)nc(N[C@H](CCCCN)C(=O)Nc2cccc(C(F)(F)F)c2)c1C#N` [Example 196, N~2~-[2-amino-5-cyano-6-(ethyloxy)pyrimidin-4-yl]-N-[3-(trifluoromethyl)phenyl]-D-lysinamide], the IC50 on p70S6K and on Akt1 was greater than 2000 nM in each case.
As for `CCOc1nc(N)nc(N[C@@H](CCCNC(N)=O)C(=O)Nc2cccc(C(F)(F)F)c2)c1C#N` [Example 194], the concentration for half-maximal inhibition (IC50) on p70S6K and at Akt1 was greater than 2000 nM throughout.
Regarding `CSc1nc(N)nc(N(CC(=O)Nc2cccc(C(F)(F)F)c2)CC2CCOCC2)c1C#N` [Example 101, N^2-[2-amino-5-cyano-6-(methylthio)pyrimidin-4-yl]-N^2-(tetrahydro-2H-pyran-4-ylmethyl)-N-[3-(trifluoromethyl)phenyl]glycinamide], the IC50 at p70S6K and at Akt1 was greater than 2000 nM each time.
Turning to `CSc1nc(N)nc(N[C@@H](CCCNC(N)=O)C(=O)Nc2cccc(C(F)(F)F)c2)c1C#N` [Example 147, N~5~-(aminocarbonyl)-N~2~-[2-amino-5-cyano-6-(methylthio)pyrimidin-4-yl]-N-[3-(trifluoromethyl)phenyl]-L-omithinamide], the IC50 at p70S6K was 500 to 2000 nM; at Akt1, greater than 2000 nM.
Consider `CSc1nc(N)nc(N[C@H](CCCCN)C(=O)Nc2cccc(C(F)(F)F)c2)c1C#N` [Example 195], for which the IC50 on p70S6K and at Akt1 was greater than 2000 nM in each case.
In the case of `Nc1nc(NCC(=O)Nc2cccc(C(F)(F)F)c2)cc(N2CCOCC2)n1`, the IC50 was less than 50 nM at p70S6K and greater than 2000 nM at PDK1.
With `CSc1nc(N)nc(SCC(=O)Nc2nc3ccccc3s2)c1C#N` [Example 23, 2-{[2-amino-5-cyano-6-(methylthio)pyrimidin-4-yl]thio}-N-1,3-benzothiazol-2-ylacetamide], the IC50 is less than 50 nM on p70S6K and greater than 2000 nM at Akt1.
With `CCOc1nc(N)nc(N[C@@H](C)C(=O)Nc2cc(C(=O)NCCN(C)C)cc(C(F)(F)F)c2)c1C#N` [Example 160, 3-({N-[2-amino-5-cyano-6-(ethyloxy)pyrimidin-4-yl]-L-alanyl}amino)-N-[2-(dimethylamino)ethyl]-5-(trifluoromethyl)benzamide], the IC50 on p70S6K and at Akt1 was greater than 2000 nM each time.
For the compound `CCOc1nc(N)nc(N(C)[C@@H](C)C(=O)Nc2cccc(OC(F)(F)F)c2)c1C#N` [Example 172, N~2~-[2-amino-5-cyano-6-(ethyloxy)pyrimidin-4-yl]-N~2~-methyl-N-{3-[(trifluoromethyl)oxy]phenyl}-L-alaninamide], the IC50 on p70S6K and at Akt1 was greater than 2000 nM throughout.
